{
  "source": "patent US20130072505A1",
  "about": "“6,9-Disubstituted Purine Derivatives and Their Use for Treating Skin” (priority 2006, published 2013)",
  "tested_on": "Human forskin fibroblasts (cell line BJ)",
  "assay": "in vitro cytotoxic activity, MTT assay",
  "assay_type": "cell-based",
  "conditions": "72 hours; BJ fibroblasts at middle passage",
  "method": "In vitro cytotoxic activity of several of the 6,9-disubstituted purine derivatives of this invention against human diploid fibroblasts was determined by standard MTT assay optimized for 96-well plates. The assay is based on spectrofotometric measurement of the product of metabolic conversion of MTT by mitochondria of living cells.\nHuman forskin fibroblasts (cell line BJ) at middle passage were maintained in 75 cm^2 plastic tissue culture flasks and cultured in cell culture medium (DMEM with 5 g/l glucose, 2 mM glutamine, 100 U/ml penicillin, 100 μg/ml streptomycin, 10% fetal calf serum, and sodium bicarbonate).\nAbout 5,000 cells were seeded per well of the 96-well plate. After 24 hours the cell culture medium was replaced with the cell culture medium containing a test compound. The test compounds were evaluated at six 2-fold dilutions. The highest concentration used in the present study was usually 200 μM. In the case of compounds with limited solubility in the culture medium the highest concentration was adjusted. Every test compound was examined in five replicates. Cells with the test compounds were incubated for 72 hours at 37° C. in 5% CO2 atmosphere and 100% humidity. At the end of the incubation period, the culture medium was replaced with the cell culture medium containing MTT (0.5 mg/ml) and cells were incubated for another 3 hours. The formazan formed was solubilized by DMSO and absorbance at 570 nm was measured. Ability of the tested compounds to inhibit MTT reducing activity of the cells was calculated as IC=(Acompound exposed well−mean Ablank)/(mean Acontrol well−meanAblank)×100%. IC10, the drug concentration causing 10% decrease in MTT reducing activity, was calculated from the obtained dose response curves.",
  "data": [
    {"smiles": "c1coc(CNc2ncnc3c2ncn3C2CCCCO2)c1", "note": "(stereo not shown) [6-furfurylamino-9-(2-tetrahydropyranyl)purine]", "values": [
      {"measurement": "IC10 (concentration causing 10% decrease in MTT reducing activity)", "result": ">200", "unit": "µM"}
    ]}
  ]
}
